Patent US11072596B2, “Poly(ADP-ribose) polymerase inhibitor, preparation method and use” (SELECTION BIOSCIENCE LLC, priority 2017, dated 2021)

Target: hERG potassium ion channel (Homo sapiens, UniProt Q12809)
Experiment: in vitro
Settings: human
Method: CHO-hERG cells were cultured in a 175 cm^2 flask, and when the cell density was increased to 60-80%, the medium was removed and washed with 7 mL of PBS (Phosphate Buffered Saline phosphate buffer), and then digested with 3 mL of Detachin.
The single-cell high impedance sealing and the whole-cell mode formation process were all automatically completed by the Qpatch instrument. After obtaining the whole-cell recording mode, the cells were clamped at −80 mV (millivolt). Before giving a 5-second+40 mV depolarization stimulus, a 50 ms-50 mV pre-voltage was first given, repolarized to −50 mV for 5 seconds, and then returned to −80 mV. This voltage stimulation was applied every 15 seconds. After recording for 2 minutes, extracellular fluid was given for 5 minutes, and then the administration process was started. The compound concentration started from the lowest test concentration, and each test concentration was given for 2.5 minutes. […] At least 3 cells were tested at each concentration (n≥3).
The 20 mM compound mother solution was diluted with extracellular fluid, and 5 μL of 20 mM compound mother solution was added to 2495 μL of extracellular solution, diluted 500-fold to 40 μM, and then sequentially performed 3-fold continuous dilution in an extracellular fluid containing 0.2% DMSO to obtain the final concentration to be tested.
The experimental data were analyzed by XLFit software.

Chain of hERG potassium ion channel (Q12809 whole entry): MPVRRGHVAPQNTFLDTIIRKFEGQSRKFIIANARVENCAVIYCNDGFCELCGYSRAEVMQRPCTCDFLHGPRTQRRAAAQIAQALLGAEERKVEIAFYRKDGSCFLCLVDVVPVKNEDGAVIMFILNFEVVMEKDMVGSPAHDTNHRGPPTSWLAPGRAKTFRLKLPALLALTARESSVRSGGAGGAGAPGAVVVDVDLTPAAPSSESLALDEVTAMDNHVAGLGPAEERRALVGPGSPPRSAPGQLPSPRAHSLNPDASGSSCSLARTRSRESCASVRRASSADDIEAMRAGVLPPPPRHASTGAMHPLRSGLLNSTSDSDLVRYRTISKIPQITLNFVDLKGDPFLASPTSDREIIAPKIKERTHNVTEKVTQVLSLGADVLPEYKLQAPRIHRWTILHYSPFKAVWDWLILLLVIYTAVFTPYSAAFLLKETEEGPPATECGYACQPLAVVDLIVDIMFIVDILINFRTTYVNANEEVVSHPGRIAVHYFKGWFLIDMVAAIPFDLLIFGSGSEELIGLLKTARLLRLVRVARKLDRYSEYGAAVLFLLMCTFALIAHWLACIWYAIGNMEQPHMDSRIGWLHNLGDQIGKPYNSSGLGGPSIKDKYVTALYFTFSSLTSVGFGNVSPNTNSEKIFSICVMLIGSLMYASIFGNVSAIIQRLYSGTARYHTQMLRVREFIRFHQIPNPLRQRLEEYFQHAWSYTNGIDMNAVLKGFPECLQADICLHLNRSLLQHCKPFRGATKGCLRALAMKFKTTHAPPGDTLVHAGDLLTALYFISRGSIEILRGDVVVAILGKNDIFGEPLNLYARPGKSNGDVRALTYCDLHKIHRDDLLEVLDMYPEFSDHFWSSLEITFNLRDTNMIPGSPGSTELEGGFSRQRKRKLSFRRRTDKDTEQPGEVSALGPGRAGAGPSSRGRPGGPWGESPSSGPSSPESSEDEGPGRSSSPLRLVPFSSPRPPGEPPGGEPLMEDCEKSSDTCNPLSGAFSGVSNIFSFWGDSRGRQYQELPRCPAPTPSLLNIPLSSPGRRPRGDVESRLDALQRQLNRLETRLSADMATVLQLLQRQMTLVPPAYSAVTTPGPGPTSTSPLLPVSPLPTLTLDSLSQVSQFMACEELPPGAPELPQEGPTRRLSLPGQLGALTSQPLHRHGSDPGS

| Structure (SMILES) | inhibition at 2.5 min, 40 µM [%] |
| --- | --- |
| COc1cc(N)c(Cl)cc1C(=O)NC1CCN(CCCOc2ccc(F)cc2)CC1OC (centres unmarked) [Cisapride] | 87.4 |

Target: T1, PARP1 (Homo sapiens, UniProt P09874)
T1 construct: purchased BPS 80580
T1 sequence (P09874 whole entry): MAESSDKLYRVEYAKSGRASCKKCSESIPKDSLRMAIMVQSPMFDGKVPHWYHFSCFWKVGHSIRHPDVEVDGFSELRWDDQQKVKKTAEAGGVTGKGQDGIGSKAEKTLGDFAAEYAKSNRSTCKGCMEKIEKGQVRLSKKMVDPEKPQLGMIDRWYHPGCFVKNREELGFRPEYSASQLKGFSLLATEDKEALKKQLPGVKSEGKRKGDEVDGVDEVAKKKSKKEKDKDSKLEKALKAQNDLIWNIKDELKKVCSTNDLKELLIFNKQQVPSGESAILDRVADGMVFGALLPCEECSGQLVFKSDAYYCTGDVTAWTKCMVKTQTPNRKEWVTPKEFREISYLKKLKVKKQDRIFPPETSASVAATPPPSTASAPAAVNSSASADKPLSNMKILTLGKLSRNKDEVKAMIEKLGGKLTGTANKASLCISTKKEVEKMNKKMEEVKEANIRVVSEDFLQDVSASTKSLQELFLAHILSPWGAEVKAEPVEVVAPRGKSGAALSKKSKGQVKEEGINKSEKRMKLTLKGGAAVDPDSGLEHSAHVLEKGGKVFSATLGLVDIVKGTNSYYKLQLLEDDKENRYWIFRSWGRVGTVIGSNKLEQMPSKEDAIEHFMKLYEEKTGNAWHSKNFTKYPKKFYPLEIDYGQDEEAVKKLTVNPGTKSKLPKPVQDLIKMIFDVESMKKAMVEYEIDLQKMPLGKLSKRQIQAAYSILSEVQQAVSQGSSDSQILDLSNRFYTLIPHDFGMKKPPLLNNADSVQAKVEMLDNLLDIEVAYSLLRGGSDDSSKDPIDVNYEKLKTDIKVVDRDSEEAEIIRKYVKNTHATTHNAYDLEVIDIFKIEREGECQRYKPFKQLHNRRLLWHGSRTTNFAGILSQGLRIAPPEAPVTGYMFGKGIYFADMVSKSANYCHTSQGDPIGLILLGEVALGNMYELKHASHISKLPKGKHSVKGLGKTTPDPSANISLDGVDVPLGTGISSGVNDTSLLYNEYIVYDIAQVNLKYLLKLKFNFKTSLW
Experiment: PARP1 Colorimetric Assay (PARP-1 kinase inhibitory activity)
Assay type: biochemical
Settings: PARP1 colorimetric assay kit, 1 hour at room temperature; read-out: PARP1 (in vitro enzymatic inhibitory activity, IC50)
Method: PARP1 kinase activity was tested by the following method:
PARP1 Colorimetric Assay Kit (BPS, Cat #80580)
1. PARP1 Colorimetric Assay
2) 50 μL of diluted coating solution was added to each well for overnight at 4° C.
4) 200 μL of blocking buffer was added to each well and incubated at room temperature for 90 minutes.
1) A reaction solution was prepared in a ratio of […] 2.5 μL 10×PARP buffer+2.5 μL 10×PARP Assay mixture+5 μL Activated DNA+15 μL deionized water per well, and 25 μL of the reaction solution was added to each well (see Table 1).
4) 100 μL of colorimetric HRP substrate was added to each well and reacted at room temperature for 20 minutes.
5) 100 μL of 2 M H2SO4 was added to each well and OD 450 nm was read on a microplate reader.

| IC50 [nM] | Structure (SMILES) |
| --- | --- |
| < 100 | NC(=O)c1cccc2cn(-c3ccc(C4(F)CCCNC4)cc3)nc12 (racemic) [Example 22, 2-(4-(3-Fluoropiperidin-3-yl)phenyl)-2H-indazole-7-carboxamide] |
| 100 to 500 | CC1(c2ccc(-n3cc4cccc(C(N)=O)c4n3)cc2)CCCNC1 (racemic) [Example 43, 2-(4-(3-Methylpiperidin-3-yl)phenyl)-2H-indazole-7-carboxamide] |
| < 100 | NC(=O)c1cccc2cn(-c3ccc([C@]4(F)CCCNC4)cc3)nc12 (single isomer, unassigned) [Example 24, (R or S)-2-(4-(3-fluoropiperidin-3-yl)phenyl)-2H-indazole-7-carboxamide] |
| 100 to 500 | C[C@]1(c2ccc(-n3cc4cccc(C(N)=O)c4n3)cc2)CCCNC1 (single isomer, unassigned) [Example 45, (R or S)-2-(4-(3-methylpiperidin-3-yl)phenyl)-2H-indazole-7-carboxamide] |
| < 100 | [2H]C1(c2ccc(-n3cc4cc(F)cc(C(N)=O)c4n3)cc2)CCCNC1 (centres unmarked) [Example 4] |
| < 100 | [2H][C@@]1(c2ccc(-n3cc4cc(F)cc(C(N)=O)c4n3)cc2)CCCNC1 [Example 5] |
| < 100 | [2H][C@]1(c2ccc(-n3cc4cc(F)cc(C(N)=O)c4n3)cc2)CCCNC1 [Example 6] |
| < 100 | [2H]C1(c2ccc(-n3cc4cccc(C(N)=O)c4n3)cc2F)CCCNC1 (centres unmarked) [Example 7] |
| < 100 | [2H][C@]1(c2ccc(-n3cc4cccc(C(N)=O)c4n3)cc2F)CCCNC1 [Example 8] |
| < 100 | [2H][C@@]1(c2ccc(-n3cc4cccc(C(N)=O)c4n3)cc2F)CCCNC1 [Example 9] |
| 100 to 500 | [2H]C1(c2ccc(-n3nc4c(C(N)=O)cccc4c3F)cc2)CCCNC1 (centres unmarked) [Example 10] |
| 100 to 500 | [2H][C@]1(c2ccc(-n3nc4c(C(N)=O)cccc4c3F)cc2)CCCNC1 [Example 11] |
| 100 to 500 | [2H][C@@]1(c2ccc(-n3nc4c(C(N)=O)cccc4c3F)cc2)CCCNC1 [Example 12] |
| 100 to 500 | [2H]C1(c2ccc(-n3cc4cccc(C(N)=O)c4n3)c(F)c2)CCCNC1 (centres unmarked) [Example 13] |
| 100 to 500 | [2H][C@]1(c2ccc(-n3cc4cccc(C(N)=O)c4n3)c(F)c2)CCCNC1 [Example 14] |
| 100 to 500 | [2H][C@@]1(c2ccc(-n3cc4cccc(C(N)=O)c4n3)c(F)c2)CCCNC1 [Example 15] |
| < 100 | [2H]C1(c2ccc(-n3cc4cc(F)cc(C(N)=O)c4n3)cc2F)CCCNC1 (centres unmarked) [Example 16] |
| < 100 | [2H][C@@]1(c2ccc(-n3cc4cc(F)cc(C(N)=O)c4n3)cc2F)CCCNC1 [Example 17] |
| < 100 | [2H][C@]1(c2ccc(-n3cc4cc(F)cc(C(N)=O)c4n3)cc2F)CCCNC1 [Example 18] |
| < 100 | [2H]C1(c2ccc(-n3cc4cc(F)cc(C(N)=O)c4n3)c(F)c2)CCCNC1 (centres unmarked) [Example 19] |
| < 100 | [2H][C@@]1(c2ccc(-n3cc4cc(F)cc(C(N)=O)c4n3)c(F)c2)CCCNC1 [Example 20] |
| < 100 | [2H][C@]1(c2ccc(-n3cc4cc(F)cc(C(N)=O)c4n3)c(F)c2)CCCNC1 [Example 21] |
| < 100 | NC(=O)c1cc(F)cc2cn(-c3ccc(C4(F)CCCNC4)cc3)nc12 (centres unmarked) [Example 25] |
| < 100 | NC(=O)c1cc(F)cc2cn(-c3ccc([C@]4(F)CCCNC4)cc3)nc12 [Example 26] |
| < 100 | NC(=O)c1cc(F)cc2cn(-c3ccc([C@@]4(F)CCCNC4)cc3)nc12 [Example 27] |
| < 100 | NC(=O)c1cccc2cn(-c3ccc(C4(F)CCCNC4)c(F)c3)nc12 (centres unmarked) [Example 28] |
| < 100 | NC(=O)c1cccc2cn(-c3ccc([C@@]4(F)CCCNC4)c(F)c3)nc12 [Example 29] |

| IC50 [nM] | Structure (SMILES) |
| --- | --- |
| < 100 | NC(=O)c1cccc2c(F)n(-c3ccc([C@]4(F)CCCNC4)cc3)nc12 [Example 30] |
| 100 to 500 | NC(=O)c1cccc2c(F)n(-c3ccc(C4(F)CCCNC4)cc3)nc12 (centres unmarked) [Example 31] |
| 100 to 500 | NC(=O)c1cccc2c(F)n(-c3ccc([C@@]4(F)CCCNC4)cc3)nc12 [Example 32] |
| 100 to 500 | NC(=O)c1cccc2c(F)n(-c3ccc([C@]4(F)CCCNC4)cc3)nc12 [Example 33] |
| 100 to 500 | NC(=O)c1cccc2cn(-c3ccc(C4(F)CCCNC4)cc3F)nc12 (centres unmarked) [Example 34] |
| 100 to 500 | NC(=O)c1cccc2cn(-c3ccc([C@@]4(F)CCCNC4)cc3F)nc12 [Example 35] |
| 100 to 500 | NC(=O)c1cccc2cn(-c3ccc([C@]4(F)CCCNC4)cc3F)nc12 [Example 36] |
| 100 to 500 | NC(=O)c1c(F)ccc2cn(-c3ccc(C4(F)CCCNC4)cc3)nc12 (centres unmarked) [Example 37] |
| 100 to 500 | NC(=O)c1c(F)ccc2cn(-c3ccc([C@]4(F)CCCNC4)cc3)nc12 [Example 38] |
| 100 to 500 | NC(=O)c1c(F)ccc2cn(-c3ccc([C@@]4(F)CCCNC4)cc3)nc12 [Example 39] |
| 100 to 500 | NC(=O)c1ccc(F)c2cn(-c3ccc(C4(F)CCCNC4)cc3)nc12 (centres unmarked) [Example 40] |
| 100 to 500 | NC(=O)c1ccc(F)c2cn(-c3ccc([C@]4(F)CCCNC4)cc3)nc12 [Example 41] |
| 100 to 500 | NC(=O)c1ccc(F)c2cn(-c3ccc([C@@]4(F)CCCNC4)cc3)nc12 [Example 42] |
| 100 to 500 | C[C@]1(c2ccc(-n3cc4cccc(C(N)=O)c4n3)cc2)CCCNC1 [Example 44, (R or S)-2-(4-(3-methylpiperidin-3-yl)phenyl)-2H-indazole-7-carboxamide] |
| 100 to 500 | CC1(c2ccc(-n3cc4cc(F)cc(C(N)=O)c4n3)cc2)CCCNC1 (centres unmarked) [Example 46] |
| 100 to 500 | C[C@@]1(c2ccc(-n3cc4cc(F)cc(C(N)=O)c4n3)cc2)CCCNC1 [Example 47] |
| 100 to 500 | C[C@]1(c2ccc(-n3cc4cc(F)cc(C(N)=O)c4n3)cc2)CCCNC1 [Example 48] |
| 100 to 500 | CC1(c2ccc(-n3cc4cccc(C(N)=O)c4n3)cc2F)CCCNC1 (centres unmarked) [Example 49] |
| 100 to 500 | C[C@]1(c2ccc(-n3cc4cccc(C(N)=O)c4n3)cc2F)CCCNC1 [Example 50] |
| 100 to 500 | C[C@@]1(c2ccc(-n3cc4cccc(C(N)=O)c4n3)cc2F)CCCNC1 [Example 51] |
| 500 to 1000 | CC1(c2ccc(-n3nc4c(C(N)=O)cccc4c3F)cc2)CCCNC1 (centres unmarked) [Example 52] |
| 500 to 1000 | C[C@]1(c2ccc(-n3nc4c(C(N)=O)cccc4c3F)cc2)CCCNC1 [Example 53] |
| 500 to 1000 | C[C@@]1(c2ccc(-n3nc4c(C(N)=O)cccc4c3F)cc2)CCCNC1 [Example 54] |
| 100 to 500 | CC1(c2ccc(-n3cc4cccc(C(N)=O)c4n3)c(F)c2)CCCNC1 (centres unmarked) [Example 55] |
| 100 to 500 | C[C@]1(c2ccc(-n3cc4cccc(C(N)=O)c4n3)c(F)c2)CCCNC1 [Example 56] |
| 100 to 500 | C[C@@]1(c2ccc(-n3cc4cccc(C(N)=O)c4n3)c(F)c2)CCCNC1 [Example 57] |

System: not listed separately
Experiment: Pharmacokinetic study in rats
Settings: SD rats, PO 10 mg/kg
Method: SD rats were used as test animals, and the drug concentrations in plasma at different times after intravenous and intragastric administration of the compounds of examples were determined by LC/MS/MS method(s) to study the pharmacokinetics of the compound in the present disclosure in rats
Healthy adult male SD (Sprague-Dawley) rats, 3 animals per test compound, 6-9 weeks old, weighing 250±50 g, were purchased from Shanghai SLAC Laboratory Animal Co., Ltd.
The appropriate amount of sample was weighed out, 0.5% Methocel/2% tween 80 was added to the final volume, and 2 mg/mL was prepared for intragastric administration.
Each 3 male SD rats of each test compound were taken by intragastric administration at a dosage of 10 mg/kg after fasting overnight.
Blood samples of each animal were collected at different time points 0.083-24 h from jugular vein puncture after administration, K2-EDTA anticoagulation, centrifugation, and blood plasma were collected, frozen at −70° C. until LC/MS/MS analysis.

| F [%] | exposure amount (AUC) compared with Niraparib, in words | Structure (SMILES) |
| --- | --- | --- |
| 62.3 | significantly higher | [2H]C1(c2ccc(-n3cc4cccc(C(N)=O)c4n3)cc2)CCCNC1 (single isomer, unassigned) [Example 3, (R or S)-2-(4-(piperidin-3-D-3-yl)phenyl)-2H-indazole-7-carboxamide] |

Same assay, conditions: SD rats, table head: Dose PO (10 mg/kg)

| CL [mL/min/kg] | Vdss [L/kg] | Structure (SMILES) |
| --- | --- | --- |
| 24.9 | 6.04 | [2H]C1(c2ccc(-n3cc4cccc(C(N)=O)c4n3)cc2)CCCNC1 (single isomer, unassigned) [Example 3, (R or S)-2-(4-(piperidin-3-D-3-yl)phenyl)-2H-indazole-7-carboxamide] |

Same assay, conditions: male, Sprague-Dawley, rat, in vivo, po, 10 mg/kg

| F [%] | MRT [h] | T1/2 [h] | Structure (SMILES) |
| --- | --- | --- | --- |
| 61.3 | 4.63 | 2.64 | NC(=O)c1cccc2cn(-c3ccc([C@]4(F)CCCNC4)cc3)nc12 (single isomer, unassigned) [Example 24, (R or S)-2-(4-(3-fluoropiperidin-3-yl)phenyl)-2H-indazole-7-carboxamide] |

Same assay, conditions: male, Sprague-Dawley, rat, plasma, po, 10 mg/kg, AUC, SD rats, PO 10 mg/kg

| AUC [ng·h/mL] | Structure (SMILES) |
| --- | --- |
| 5160 | [2H]C1(c2ccc(-n3cc4cccc(C(N)=O)c4n3)cc2)CCCNC1 (single isomer, unassigned) [Example 3, (R or S)-2-(4-(piperidin-3-D-3-yl)phenyl)-2H-indazole-7-carboxamide] |

Same assay, conditions: male, Sprague-Dawley, rat, plasma, po, 10 mg/kg, Cmax, SD rats, PO 10 mg/kg

| Cmax [ng/mL] | Structure (SMILES) |
| --- | --- |
| 549 | [2H]C1(c2ccc(-n3cc4cccc(C(N)=O)c4n3)cc2)CCCNC1 (single isomer, unassigned) [Example 3, (R or S)-2-(4-(piperidin-3-D-3-yl)phenyl)-2H-indazole-7-carboxamide] |

Same assay, conditions: male, Sprague-Dawley, rat, plasma, po, 10 mg/kg, MRT, SD rats, PO 10 mg/kg

| MRT [h] | Structure (SMILES) |
| --- | --- |
| 7.95 | [2H]C1(c2ccc(-n3cc4cccc(C(N)=O)c4n3)cc2)CCCNC1 (single isomer, unassigned) [Example 3, (R or S)-2-(4-(piperidin-3-D-3-yl)phenyl)-2H-indazole-7-carboxamide] |

Same assay, conditions: male, Sprague-Dawley, rat, plasma, po, 10 mg/kg, T1/2, SD rats, PO 10 mg/kg

| half-life [h] | Structure (SMILES) |
| --- | --- |
| 3.18 | [2H]C1(c2ccc(-n3cc4cccc(C(N)=O)c4n3)cc2)CCCNC1 (single isomer, unassigned) [Example 3, (R or S)-2-(4-(piperidin-3-D-3-yl)phenyl)-2H-indazole-7-carboxamide] |
